Measurements as given in patent publication US12702676B2, “Fosfomycin dosing regimens” (priority 2017, dated 2026).

Tests used:
[1] = system: baseline bacterial pathogen in cUTI or AP; assay: ZEUS Phase 2/3 noninferiority trial, efficacy at TOC in hospitalized adults; type: in vivo, human; settings: for overall success rates at TOC: m-MITT population, clinical cure plus microbiologic eradication, 6 g ZTI-01 q8h or 4.5 g P-T q8h IV; for overall success rates using unique pathogen strains typed by PFGE: post-hoc analysis
Experimental: Oral step-down therapy was prohibited (FIG. 4).
A post-hoc analysis using pulsed-field gel electrophoresis (PFGE) was performed to molecularly type all baseline and TOC pathogens (both treatment arms), in order to confirm microbiological eradication/persistence; a total of 20 post-baseline pathogens were identified as unique, unrelated strains compared to baseline.

[2] = ZEUS Phase 2/3 trial, safety (adverse events); settings: for Any AEs / Any TEAEs / Drug-related SAE / Drug-related TEAEs / SAEs / Serious TEAEs leading to study drug discontinuation / TEAEs leading to study drug discontinuation / TEAEs: Mild / TEAEs: Moderate / TEAEs: Severe: MITT Safety Population (n = 233 ZTI-01, n = 231 P-T); for SAE related to study drug (1 in each treatment group): in vivo
[3] = Bacteremia, m-MITT (N1 19 ZTI-01, 13 P-T)
[4] = CE-TOC (N1 199 ZTI-01, 196 P-T)
[5] = ME-TOC (N1 155 ZTI-01, 145 P-T)
[6] = Original Analysis, ME-TOC (N1 155 ZTI-01, 145 P-T)
[7] = Original Analysis, m-MITT (N1 184 ZTI-01, 178 P-T)
[8] = Post-hoc Analysis Using PFGE Typing, ME-TOC (N1 155 ZTI-01, 145 P-T)
[9] = Post-hoc Analysis Using PFGE Typing, m-MITT (N1 184 ZTI-01, 178 P-T)
[10] = SIRS, m-MITT (N1 62 ZTI-01, 52 P-T)
[11] = m-MITT (N1 184 ZTI-01, 178 P-T)

## C[C@@H]1O[C@@H]1P(=O)(O)O [ZTI-01, fosfomycin]
[1]; [3]
  Clinical Response at TOC: Eradication: 15 (78.9%) n (%)
  Clinical Response at TOC: Indeterminate: 2 (10.5%) n (%)
  Clinical Response at TOC: Persistence: 2 (10.5%) n (%)
  Overall Response at TOC: Eradication: 9 (47.4%) n (%)
  Overall Response at TOC: Indeterminate: 3 (15.8%) n (%)
  Overall Response at TOC: Persistence: 7 (36.8%) n (%)
  Per-patient Microbiological Response at TOC: Eradication: 9 (47.4%) n (%)
  Per-patient Microbiological Response at TOC: Indeterminate: 4 (21.2%) n (%)
  Per-patient Microbiological Response at TOC: Persistence: 6 (31.6%) n (%)
[1]; [4]
  Clinical Response at TOC: Cure: 188 (94.5%) n (%)
  Clinical Response at TOC: Failure: 11 (5.5%) n (%)
[1]; CE-TOC, 95% CI (−3.7, 6.9)
  Clinical Response at TOC: Treatment Difference (ZTI-01 vs P-T): 1.6%
[1]; [5]
  Clinical Response at TOC: Cure: 148 (95.5%) n (%)
  Clinical Response at TOC: Failure: 7 (4.5%) n (%)
[1]; ME-TOC, 95% CI (−3.5, 8.3)
  Clinical Response at TOC: Treatment Difference (ZTI-01 vs P-T): 2.4%
[1]; MITT (N1 233 ZTI-01, 231 P-T)
  Clinical Response at TOC: Cure: 211 (90.6%) n (%)
  Clinical Response at TOC: Failure: 11 (4.7%) n (%)
  Clinical Response at TOC: Indeterminate: 11 (4.7%) n (%)
[1]; MITT, 95% CI (−6.8, 4.4)
  Clinical Response at TOC: Treatment Difference (ZTI-01 vs P-T): −1.2%
[1]; [6]
  Microbiological Response at TOC: Eradication: 109 (70.3%) n (%)
  Microbiological Response at TOC: Persistence: 46 (29.7%) n (%)
[1]; [7]
  Microbiological Response at TOC: Eradication: 121 (65.8%) n (%)
  Microbiological Response at TOC: Indeterminate: 13 (7.1%) n (%)
  Microbiological Response at TOC: Persistence: 50 (27.2%) n (%)
[1]; [8]
  Microbiological Response at TOC: Eradication: 117 (75.5%) n (%)
  Microbiological Response at TOC: Persistence: 38 (24.5%) n (%)
[1]; [9]
  Microbiological Response at TOC: Eradication: 130 (70.7%) n (%)
  Microbiological Response at TOC: Indeterminate: 13 (7.1%) n (%)
  Microbiological Response at TOC: Persistence: 41 (22.3%) n (%)
[1]; [10]
  Clinical Response at TOC: Eradication: 55 (88.7%) n (%)
  Clinical Response at TOC: Indeterminate: 4 (6.5%) n (%)
  Clinical Response at TOC: Persistence: 3 (4.8%) n (%)
  Overall Response at TOC: Eradication: 41 (66.1%) n (%)
  Overall Response at TOC: Indeterminate: 5 (8.1%) n (%)
  Overall Response at TOC: Persistence: 16 (25.8%) n (%)
  Patient Microbiological response at TOC: Eradication: 41 (66.1%) n (%)
  Patient Microbiological response at TOC: Indeterminate: 7 (11.3%) n (%)
  Patient Microbiological response at TOC: Persistence: 14 (22.6%) n (%)
[1]; [11]
  Clinical Response at TOC: Cure: 167 (90.8%) n (%)
  Clinical Response at TOC: Failure: 9 (4.9%) n (%)
  Clinical Response at TOC: Indeterminate: 8 (4.3%) n (%)
[1]
  overall success rates at TOC: 64.7%
[1]; m-MITT, TOC, 95% CI −0.4, 20.8
  difference in overall success rate (ZTI-01 vs P-T): 10.2%
[1]; m-MITT, 95% CI (−7.2, 5.6)
  Clinical Response at TOC: Treatment Difference (ZTI-01 vs P-T): −0.8%
[1]; m-MITT, TOC
  overall success rates using unique pathogen strains typed by PFGE: 69.0%
[1]; post-hoc, 95% CI 1.3, 22.1
  difference in overall success rate using PFGE typing (ZTI-01 vs P-T): 11.7%
[1]; preferred dosing regimen 6 g tid
  effective (patients with AP): 68%
[2]
  Any AEs: 99 (42.5%) n (%)
  Any TEAEs: 98 (42.1%) n (%)
  Drug-related SAE: 1 (0.4%) n (%)
  Drug-related TEAEs: 48 (20.6%) n (%)
  SAEs: 5 (2.1%) n (%)
  Serious TEAEs leading to study drug discontinuation: 0 (0%) n (%)
  TEAEs leading to study drug discontinuation: 7 (3.0%) n (%)
  TEAEs: Mild: 84 (36.1%) n (%)
  TEAEs: Moderate: 35 (15.0%) n (%)
  TEAEs: Severe: 5 (2.1%) n (%)
  SAE related to study drug (1 in each treatment group): hypokalemia
[2]; majority of AEs mild to moderate
  tolerability: generally well tolerated
[2]; safety population (n=464)
  treatment-emergent adverse events (TEAEs) observed, % of patients: 42.1%

## piperacillin/tazobactam [P-T]
[1]; [3]
  Clinical Response at TOC: Eradication: 10 (76.9%) n (%)
  Clinical Response at TOC: Indeterminate: 0 (0%) n (%)
  Clinical Response at TOC: Persistence: 3 (23.1%) n (%)
  Overall Response at TOC: Eradication: 5 (38.5%) n (%)
  Overall Response at TOC: Indeterminate: 0 (0%) n (%)
  Overall Response at TOC: Persistence: 8 (61.5%) n (%)
  Per-patient Microbiological Response at TOC: Eradication: 6 (46.2%) n (%)
  Per-patient Microbiological Response at TOC: Indeterminate: 0 (0%) n (%)
  Per-patient Microbiological Response at TOC: Persistence: 7 (53.8%) n (%)
[1]; [4]
  Clinical Response at TOC: Cure: 182 (92.9%) n (%)
  Clinical Response at TOC: Failure: 14 (7.1%) n (%)
[1]; [5]
  Clinical Response at TOC: Cure: 135 (93.1%) n (%)
  Clinical Response at TOC: Failure: 10 (6.9%) n (%)
[1]; MITT (N1 233 ZTI-01, 231 P-T)
  Clinical Response at TOC: Cure: 212 (91.8%) n (%)
  Clinical Response at TOC: Failure: 16 (6.9%) n (%)
  Clinical Response at TOC: Indeterminate: 3 (1.3%) n (%)
[1]; [6]
  Microbiological Response at TOC: Eradication: 86 (59.3%) n (%)
  Microbiological Response at TOC: Persistence: 59 (40.7%) n (%)
[1]; [7]
  Microbiological Response at TOC: Eradication: 100 (56.2%) n (%)
  Microbiological Response at TOC: Indeterminate: 9 (5.1%) n (%)
  Microbiological Response at TOC: Persistence: 69 (38.8%) n (%)
[1]; [8]
  Microbiological Response at TOC: Eradication: 93 (64.1%) n (%)
  Microbiological Response at TOC: Persistence: 52 (35.9%) n (%)
[1]; [9]
  Microbiological Response at TOC: Eradication: 107 (60.1%) n (%)
  Microbiological Response at TOC: Indeterminate: 9 (5.1%) n (%)
  Microbiological Response at TOC: Persistence: 62 (34.8%) n (%)
[1]; [10]
  Clinical Response at TOC: Eradication: 48 (92.3%) n (%)
  Clinical Response at TOC: Indeterminate: 2 (3.8%) n (%)
  Clinical Response at TOC: Persistence: 2 (3.8%) n (%)
  Overall Response at TOC: Eradication: 39 (75.0%) n (%)
  Overall Response at TOC: Indeterminate: 2 (3.8%) n (%)
  Overall Response at TOC: Persistence: 11 (21.2%) n (%)
  Patient Microbiological response at TOC: Eradication: 40 (76.9%) n (%)
  Patient Microbiological response at TOC: Indeterminate: 2 (3.8%) n (%)
  Patient Microbiological response at TOC: Persistence: 10 (19.2%) n (%)
[1]; [11]
  Clinical Response at TOC: Cure: 163 (91.6%) n (%)
  Clinical Response at TOC: Failure: 12 (6.7%) n (%)
  Clinical Response at TOC: Indeterminate: 3 (1.7%) n (%)
[1]
  overall success rates at TOC: 54.5%
[1]; m-MITT, TOC
  overall success rates using unique pathogen strains typed by PFGE: 57.3%
[2]
  Any AEs: 74 (32.0%) n (%)
  Any TEAEs: 74 (32.0%) n (%)
  Drug-related SAE: 1 (0.4%) n (%)
  Drug-related TEAEs: 32 (13.9%) n (%)
  SAEs: 6 (2.6%) n (%)
  Serious TEAEs leading to study drug discontinuation: 1 (0.4%) n (%)
  TEAEs leading to study drug discontinuation: 6 (2.6%) n (%)
  TEAEs: Mild: 49 (21.2%) n (%)
  TEAEs: Moderate: 38 (16.5%) n (%)
  TEAEs: Severe: 4 (1.7%) n (%)
  SAE related to study drug (1 in each treatment group): renal insufficiency
